Source: patent US10449248B2, “Nutritional composition for improving the mammalian immune system” (N.V. Nutricia, priority 2008, dated 2019)

Tested on: HepG2 cells
Assay: Glutathione content of HepG2 cells with or without glutathione precursor amino acids
Type: cell-based
Conditions: in vitro model of normal liver, FIG. 4

## N[C@@H](CS)C(=O)O [cysteine]
  effect on the glutathione homeostasis in liver HepG2 cells: positive effect

## NC(=O)CC[C@H](N)C(=O)O [glutamine]
  effect on the glutathione homeostasis in liver HepG2 cells: positive effect
